According to patent US20030124616A1, “Homocysteinylated transthyretin” (priority 2001, published 2003):

Experiments:
human plasma fibronectin [1] = assay: Stoichiometry of 35S-L-homocysteine binding to fibronectin (scintillation counting)
Protocol: The human plasma fibronectin purified by affinity chromatography described above was used in these studies. Purity was assessed by SDS-PAGE as described below. Purified fibronectin (200 μg/mL) was incubated with various concentrations (up to 500 μmol/L) of ^35S-L-homocysteine for up to 10 hours at 37° C. Unbound homocysteine was removed by precipitating the fibronectin with 5% trichloroacetic acid containing 0.5% tannic acid using transferrin as a carrier protein. The precipitated fibronectin was washed 3 times with the trichloroacetic acid/tannic acid, resuspended in 0.1 N NaOH and an aliquot subjected to scintillation counting.

human plasma fibronectin [2] = assay: Binding of 35S-L-homocysteine and 35S-L-cysteine to fibronectin (SDS-PAGE, phosphorimaging); conditions: 500 μmol/L, 5 hours at 37° C.
Protocol: (§1) ^35S-L-homocysteine (500 μmol/L final concentration) was added to either human plasma fibronectin (1 mg/mL, 0.05 mol/L TES buffer, pH 7.4) or human plasma diluted 1:1 with 0.05 mol/L TES buffer, pH 7.4 and incubated under aerobic conditions for 5 hours at 37° C. with continuous shaking. Separate samples of human plasma and fibronectin were incubated with ^35S-L-cysteine (1,000 Ci/mmol) (New England Nuclear, Boston, Mass.) which was first diluted with cold L-cysteine (in 1 mol/L TES buffer, pH 7.4) to obtain a specific activity equal to that of the synthesized ^35S-L-homocysteine. The final concentrations of L-cysteine and TES in the reaction mixture was 500 μmol/L and 0.05 mol/L respectively and the incubation was carried out as described above for L-homocysteine. The bound radioactive homocysteine was detected by SDS-PAGE of the samples followed by phosphorimage analysis (Molecular Dynamics Inc., Sunnyvale, Calif.).
(§2) Samples were combined with SDS-PAGE sample buffer (62.5 mmol/L Tris-HCl, pH 6.8, 2% SDS, 10% glycerol, 0.02% bromophenol blue) and aliquots of some samples were reduced with 2-mercaptoethanol and heated to 100° C. for 5 minutes. The samples were loaded onto 4-20% precast gradient gels (Z Axis, Hudson, Ohio) and electrophoresed using the method of Laemmli. […]

albumin = target: T1, albumin (Homo sapiens, UniProt P02768); assay: Binding of 35S-L-homocysteine and 35S-L-cysteine to plasma proteins (SDS-PAGE, phosphorimaging); conditions: 500 μmol/L, plasma diluted 1:1 with TES buffer
T1 construct: from tissue; host or cells: human plasma
T1 sequence (P02768 25-609): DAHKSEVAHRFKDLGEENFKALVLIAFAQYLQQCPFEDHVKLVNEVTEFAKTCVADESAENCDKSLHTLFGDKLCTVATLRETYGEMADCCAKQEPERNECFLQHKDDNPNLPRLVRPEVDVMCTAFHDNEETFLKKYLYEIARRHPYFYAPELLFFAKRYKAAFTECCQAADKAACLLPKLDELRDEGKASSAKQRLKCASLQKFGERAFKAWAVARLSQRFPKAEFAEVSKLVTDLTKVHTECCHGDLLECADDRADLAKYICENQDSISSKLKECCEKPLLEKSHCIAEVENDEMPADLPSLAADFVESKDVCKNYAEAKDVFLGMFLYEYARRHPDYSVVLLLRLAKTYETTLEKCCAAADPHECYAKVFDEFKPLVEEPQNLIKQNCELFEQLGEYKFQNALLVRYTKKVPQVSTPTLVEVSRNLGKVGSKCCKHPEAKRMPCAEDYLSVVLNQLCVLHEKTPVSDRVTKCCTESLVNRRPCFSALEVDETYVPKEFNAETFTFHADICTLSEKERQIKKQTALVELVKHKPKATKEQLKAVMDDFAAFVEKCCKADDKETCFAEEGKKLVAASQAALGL
Protocol: as §1, §2

[3] = target: T2, human transthyretin (TTR) (Homo sapiens, UniProt P02766); assay: Radiolabeling and SDS-PAGE of human plasma and purified transthyretin with 35S-L-homocysteine; type: binding; conditions: 0.5 mM, 5 h, label lost with β-mercaptoethanol
T2 construct: Plasma TTR is a 127 amino acid protein containing a single cysteine residue at position 10; purchased Sigma
Protocol: ^35S-L-Homocysteine was incubated with 50% human plasma in 0.05 M TES buffer (pH 7.4), or with purified human transthyretin (1 mg/ml in water) for 5 h at 37 C. Protein was then precipitated with 1.5 M perchloric acid and washed three times with 1.5 M perchloric acid. The final pellet was solubilized in SDS-PAGE sample buffer with and without reduction by β-mercaptoethanol. After treatment at 100 C. for 10 min, aliquots were subjected to analysis by SDS-PAGE using a 10% gel. The gel was stained with Coomassie blue, dried and subjected to phosphorimaging to detect ^35S- labeled proteins.
In FIG. 1, ^35S-L-Homocysteine (0.5 mM) was incubated with 50% human plasma in 0.05M TES buffer (pH 7.4) and with commercially available human transthyretin from Sigma (1 mg/mL in water) for 5 hours at […]. Following the incubation, protein was precipitated with 1.5M perchloric acid and solubilized with SDS-PAGE sample buffer. Aliquots were subjected to analysis by SDS-PAGE using a 10% gel without (see lanes 1 and 2 in FIG. 1) and with reduction by β-mercaptoethanol followed by heating at 100° C. for 10 minutes (see lanes 3 and 4 in FIG. 1). The gel was strained with Coomassie blue, dried and subjected to phosphorimaging to detect ^35S-labeled proteins. […]

Row | SMILES | time for binding to fibronectin to reach equilibrium (human plasma fibronectin [1]; 500 μmol/L homocysteine) | maximum homocysteine bound per mole of dimeric fibronectin (human plasma fibronectin [1]; up to 500 μmol/L homocysteine, 37° C.) | binding to fibronectin in plasma or purified fibronectin (human plasma fibronectin [2]) | binding to albumin in human plasma (albumin) | reaction with TTR (labeling of TTR dimer and tetramer) [3]
1 | N[C@@H](CCS)C(=O)O [L-homocysteine] | ≤ 5 h | 5 mol | bound via a disulfide linkage | most of the radioactivity in the plasma was associated with albumin | readily reacts with the Cys^10 position of TTR
2 | N[C@@H](CS)C(=O)O [L-cysteine] |  |  | did not bind | bound to albumin | 
